Data on 17 compounds can be found in ChEMBL document CHEMBL1909046, “DrugMatrix in vitro pharmacology data”.

Where a SMILES comes first, the peptide text is derived from it. Bridges are numbered along the chain shown (N, C = ends). [ ]: non-standard residue; d: D form. The star is where a group is joined. Threoninol(2S,3R) = C[C@@H](O)[C@H](CO)N*

Broadly, the IC50 is the concentration needed to halve the response being measured. For orientation: Ki means the dissociation constant of the complex between target and ligand, obtained from inhibition or displacement.

The target of series [1] is Beta-3 adrenergic receptor (Homo sapiens, UniProt P13945). The series can be described thus: DRUGMATRIX: Adrenergic beta3 radioligand binding (ligand: [125I] Cyanopindolol). Format: cell membranes, Membrane. The conditions noted are these: hek293; Not Active = under 50% inhibition at 10 µM.
Beta-3 adrenergic receptor, sequence (P13945 whole entry): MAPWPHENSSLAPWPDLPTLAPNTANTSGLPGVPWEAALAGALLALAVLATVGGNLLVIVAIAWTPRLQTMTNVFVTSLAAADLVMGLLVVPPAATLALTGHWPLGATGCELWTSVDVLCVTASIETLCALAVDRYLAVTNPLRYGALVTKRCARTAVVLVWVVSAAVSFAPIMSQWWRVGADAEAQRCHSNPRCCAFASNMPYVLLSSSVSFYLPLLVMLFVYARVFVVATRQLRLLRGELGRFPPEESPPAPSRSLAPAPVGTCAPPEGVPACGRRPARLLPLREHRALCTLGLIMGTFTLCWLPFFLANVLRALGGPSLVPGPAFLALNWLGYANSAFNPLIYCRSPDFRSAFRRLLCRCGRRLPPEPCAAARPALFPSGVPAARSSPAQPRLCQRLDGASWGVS
For series [2], the target named is 5-hydroxytryptamine receptor 2B (Homo sapiens, UniProt P41595). Format: cell membranes, CHO-K1, Membrane. Further: in other assays of this panel Not Active means under 50% inhibition at 10 µM.
5-hydroxytryptamine receptor 2B, sequence (P41595 whole entry): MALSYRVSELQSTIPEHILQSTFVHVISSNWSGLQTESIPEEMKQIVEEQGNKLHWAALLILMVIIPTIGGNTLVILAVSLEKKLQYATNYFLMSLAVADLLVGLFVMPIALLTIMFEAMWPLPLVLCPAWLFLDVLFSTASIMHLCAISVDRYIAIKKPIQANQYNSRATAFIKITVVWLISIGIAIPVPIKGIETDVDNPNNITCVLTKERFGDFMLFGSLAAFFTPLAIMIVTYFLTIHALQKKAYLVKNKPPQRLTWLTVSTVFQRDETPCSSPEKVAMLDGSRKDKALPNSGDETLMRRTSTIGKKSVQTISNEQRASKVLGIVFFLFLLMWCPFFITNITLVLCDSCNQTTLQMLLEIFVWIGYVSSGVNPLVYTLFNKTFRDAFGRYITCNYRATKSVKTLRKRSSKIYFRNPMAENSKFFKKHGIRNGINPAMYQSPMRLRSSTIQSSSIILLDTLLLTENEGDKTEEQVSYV
Another series addresses T1, Thromboxane-A synthase (Homo sapiens, UniProt P24557).
T1 sequence (P24557 whole entry): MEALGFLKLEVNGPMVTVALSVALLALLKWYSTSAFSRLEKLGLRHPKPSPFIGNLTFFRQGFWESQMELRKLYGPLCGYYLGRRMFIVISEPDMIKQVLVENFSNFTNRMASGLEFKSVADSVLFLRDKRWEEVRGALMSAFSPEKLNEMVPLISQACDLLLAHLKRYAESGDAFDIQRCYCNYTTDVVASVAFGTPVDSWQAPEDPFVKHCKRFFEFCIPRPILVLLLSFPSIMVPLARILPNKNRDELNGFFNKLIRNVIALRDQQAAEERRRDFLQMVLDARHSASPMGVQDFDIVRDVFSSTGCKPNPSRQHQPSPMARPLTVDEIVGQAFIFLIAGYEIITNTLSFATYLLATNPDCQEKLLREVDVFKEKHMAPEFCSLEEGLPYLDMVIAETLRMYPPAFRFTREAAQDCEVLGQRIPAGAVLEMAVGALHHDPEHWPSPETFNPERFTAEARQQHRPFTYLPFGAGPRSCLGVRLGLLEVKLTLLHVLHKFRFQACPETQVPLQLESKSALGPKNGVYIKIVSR
Briefly: biochemical. The conditions noted are these: platelet. Format: tissue-based, Platelet.

A further series concerns the target Histamine H2 receptor (Homo sapiens, UniProt P25021). The format is cell membranes, CHO-K1, Membrane. The conditions noted are these: cho-k1. Further: in other assays of this panel Not Active means under 50% inhibition at 10 µM.
Series [3] deals with Mitogen-activated protein kinase 1 (Homo sapiens, UniProt P28482). The series can be described thus: DRUGMATRIX: Protein Serine/Threonine Kinase, ERK2 enzyme inhibition (substrate: Myelin Basic Protein). More on the design: species or system Escherichia coli. The conditions noted are these: Not Active = under 50% inhibition at 10 µM.
Mitogen-activated protein kinase 1, sequence (P28482 whole entry): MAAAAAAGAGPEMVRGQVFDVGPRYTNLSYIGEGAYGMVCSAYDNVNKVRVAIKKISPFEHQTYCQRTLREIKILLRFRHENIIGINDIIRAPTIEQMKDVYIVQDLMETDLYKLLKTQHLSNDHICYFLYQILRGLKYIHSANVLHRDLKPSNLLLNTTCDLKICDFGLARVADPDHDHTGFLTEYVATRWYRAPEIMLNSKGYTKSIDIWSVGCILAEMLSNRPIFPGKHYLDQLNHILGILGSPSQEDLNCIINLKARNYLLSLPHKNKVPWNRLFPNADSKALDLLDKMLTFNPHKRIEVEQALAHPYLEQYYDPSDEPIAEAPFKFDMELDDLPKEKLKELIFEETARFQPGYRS
Series [4] concerns the target T2, 5-hydroxytryptamine receptor 1A (Rattus norvegicus, UniProt P19327). Further: in other assays of this panel Not Active means under 50% inhibition at 10 µM.
T2 sequence (P19327 whole entry): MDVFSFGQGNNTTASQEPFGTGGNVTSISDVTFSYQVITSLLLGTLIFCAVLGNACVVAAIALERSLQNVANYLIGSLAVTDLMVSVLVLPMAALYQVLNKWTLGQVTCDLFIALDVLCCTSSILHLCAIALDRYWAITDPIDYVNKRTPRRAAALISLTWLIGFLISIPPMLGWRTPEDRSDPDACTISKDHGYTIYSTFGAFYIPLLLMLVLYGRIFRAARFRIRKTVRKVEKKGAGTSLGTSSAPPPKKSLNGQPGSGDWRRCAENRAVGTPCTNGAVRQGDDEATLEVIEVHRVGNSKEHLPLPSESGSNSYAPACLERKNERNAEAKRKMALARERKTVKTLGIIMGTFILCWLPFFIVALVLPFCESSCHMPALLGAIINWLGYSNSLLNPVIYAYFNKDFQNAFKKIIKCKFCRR
Format: cell membranes, Membrane. As to conditions: cho-k1.

A further series deals with Cytochrome P450 2C9 (Homo sapiens, UniProt P11712). The conditions noted are these: bti-tn-5b1-4.
Cytochrome P450 2C9, sequence (P11712 whole entry): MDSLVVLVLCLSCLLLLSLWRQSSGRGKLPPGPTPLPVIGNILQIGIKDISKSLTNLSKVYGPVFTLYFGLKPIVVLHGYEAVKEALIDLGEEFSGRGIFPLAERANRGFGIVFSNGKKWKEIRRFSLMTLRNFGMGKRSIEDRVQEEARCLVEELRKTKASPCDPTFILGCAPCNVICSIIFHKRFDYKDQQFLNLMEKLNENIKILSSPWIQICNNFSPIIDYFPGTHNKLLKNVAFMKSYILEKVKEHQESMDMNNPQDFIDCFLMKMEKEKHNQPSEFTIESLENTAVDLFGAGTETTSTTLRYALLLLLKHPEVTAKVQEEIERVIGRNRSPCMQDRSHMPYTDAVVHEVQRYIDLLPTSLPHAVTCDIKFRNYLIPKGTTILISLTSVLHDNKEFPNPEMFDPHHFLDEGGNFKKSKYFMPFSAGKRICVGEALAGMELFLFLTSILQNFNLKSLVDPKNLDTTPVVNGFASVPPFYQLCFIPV

Histamine H2 receptor, sequence (P25021 whole entry): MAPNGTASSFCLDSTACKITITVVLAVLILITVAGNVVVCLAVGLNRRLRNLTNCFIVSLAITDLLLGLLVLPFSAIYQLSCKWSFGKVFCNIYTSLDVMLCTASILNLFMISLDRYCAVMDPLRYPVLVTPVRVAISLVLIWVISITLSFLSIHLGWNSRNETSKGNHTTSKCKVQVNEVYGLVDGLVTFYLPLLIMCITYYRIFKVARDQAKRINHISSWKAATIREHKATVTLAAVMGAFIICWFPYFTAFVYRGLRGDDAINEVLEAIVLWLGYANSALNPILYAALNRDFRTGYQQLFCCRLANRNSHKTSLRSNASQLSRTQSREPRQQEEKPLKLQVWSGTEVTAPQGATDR

As for `C[C@@H](O)[C@H](CO)NC(=O)[C@@H]1CSSC[C@H](NC(=O)[C@H](N)Cc2ccccc2)C(=O)N[C@@H](Cc2ccccc2)C(=O)N[C@H](Cc2c[nH]c3ccccc23)C(=O)N[C@@H](CCCCN)C(=O)N[C@@H]([C@@H](C)O)C(=O)N1` (H-[dF]CF[dW]KTC-{Threoninol(2S,3R)}; disulfide 2-7), the IC50 entry (in series [1]; in series [2] (cho-k1); against Thromboxane-A synthase; on Histamine H2 receptor; in series [3]; in series [4]) was “Not Active” each time. In addition, the concentration for half-maximal inhibition (IC50) entry against Cytochrome P450 2C9 is reported as “Not Active”. The Ki result on Cytochrome P450 2C9 is “Not Active”.

On to `S=C=Nc1cccc2ccccc12` [1-NAPHTHYLISOTHIOCYANATE], for which the IC50 result is “Not Active” in series [1]; 25.2 µM in series [2] (read-out: IC50); “Not Active” at Thromboxane-A synthase; “Not Active” against Histamine H2 receptor; “Not Active” in series [3]; “Not Active” in series [4]. The IC50 entry against Cytochrome P450 2C9 is “Not Active”. Further, the Ki is 16 µM in series [2] (read-out: Ki) and “Not Active” on Cytochrome P450 2C9.

`C[C@](O)(CS(=O)(=O)c1ccc(F)cc1)C(=O)Nc1ccc(C#N)c(C(F)(F)F)c1` [(R)-BICALUTAMIDE]: the IC50 entry (in series [1]; in series [2] (cho-k1); against Thromboxane-A synthase; against Histamine H2 receptor; in series [3]; in series [4]) was “Not Active” throughout. Moreover, on Cytochrome P450 2C9, the IC50 result is “Not Active”. Further, on Cytochrome P450 2C9, the inhibition constant Ki result is recorded as “Not Active”.

In the case of `CC(=O)Nc1ccc(O)cc1` [ACETAMINOPHEN], the IC50 entry (in series [1]; in series [2] (cho-k1); against Thromboxane-A synthase; against Histamine H2 receptor; in series [3]; in series [4]) was “Not Active” throughout. On Cytochrome P450 2C9, the concentration for half-maximal inhibition (IC50) result is on record as “Not Active”. For the same compound, at Cytochrome P450 2C9, the Ki entry is “Not Active”.

For the compound `COc1cc2c(c3oc(=O)c4c(c13)CCC4=O)[C@@H]1C=CO[C@@H]1O2` [AFLATOXIN], the IC50 result (in series [1]; in series [2] (cho-k1); against Thromboxane-A synthase; against Histamine H2 receptor; in series [3]; in series [4]) was “Not Active” throughout. For the same compound, at Cytochrome P450 2C9, the IC50 entry was “Not Active”. In addition, the inhibition constant Ki entry (in series [1]; in series [2] (cho-k1); on Thromboxane-A synthase; at Histamine H2 receptor; in series [3]; in series [4]) was “Not Active” in each case. Also, the Ki entry at Cytochrome P450 2C9 is listed as “Not Active”.

For the compound `N=C(N)NC(=O)c1nc(Cl)c(N)nc1N` [AMILORIDE], the half-maximal inhibitory concentration (IC50) entry (in series [1]; in series [2] (cho-k1); at Thromboxane-A synthase; against Histamine H2 receptor; in series [3]; in series [4]) was “Not Active” in each case. Besides, the 50% inhibitory concentration (IC50) result on Cytochrome P450 2C9 is reported as “Not Active”. In addition, the Ki entry on Cytochrome P450 2C9 is “Not Active”.

As for `CN1C(=O)COc2c(C(=O)NC3CN4CCC3CC4)cc(Cl)cc21` (stereo not drawn) [AZASETRON], the half-maximal inhibitory concentration (IC50) entry (in series [1]; in series [2] (cho-k1); on Thromboxane-A synthase; against Histamine H2 receptor; in series [3]; in series [4]) was “Not Active” each time. In addition, the half-maximal inhibitory concentration (IC50) result at Cytochrome P450 2C9 is on record as “Not Active”. In addition, the inhibitory constant (Ki) result on Cytochrome P450 2C9 was “Not Active”.

Regarding `C[C@H]1C[C@H]2[C@@H]3CCC4=CC(=O)C=C[C@]4(C)[C@@]3(Cl)[C@@H](O)C[C@]2(C)[C@@]1(O)C(=O)CO` [BECLOMETHASONE], the half-maximal inhibitory concentration (IC50) result (in series [1]; in series [2] (cho-k1); at Thromboxane-A synthase; on Histamine H2 receptor; in series [3]; in series [4]) was “Not Active” throughout. Moreover, at Cytochrome P450 2C9, the IC50 result is on record as “Not Active”. The Ki result at Cytochrome P450 2C9 was “Not Active”.

For `CCOC(=O)[C@H](CCc1ccccc1)N[C@H]1CCc2ccccc2N(CC(=O)O)C1=O` [BENAZEPRIL], the IC50 entry (in series [1]; in series [2] (cho-k1); at Thromboxane-A synthase; on Histamine H2 receptor; in series [3]; in series [4]) was “Not Active” in each case. For the same compound, the 50% inhibitory concentration (IC50) result against Cytochrome P450 2C9 is given as “Not Active”. The Ki entry at Cytochrome P450 2C9 is on record as “Not Active”.

On to `Nc1c(CC(=O)O)cccc1C(=O)c1ccc(Br)cc1` [BROMFENAC], for which the IC50 result (in series [1]; in series [2] (cho-k1); against Thromboxane-A synthase; against Histamine H2 receptor; in series [3]; in series [4]) was “Not Active” in each case. Further, the IC50 entry at Cytochrome P450 2C9 is “Not Active”. For the same compound, on Cytochrome P450 2C9, the inhibition constant Ki entry is listed as “Not Active”.

For the compound `CCCCN1CCCCC1C(=O)Nc1c(C)cccc1C.Cl` (stereo not drawn) [BUPIVACAINE HYDROCHLORIDE], the IC50 result (in series [1]; in series [2] (cho-k1); against Thromboxane-A synthase; against Histamine H2 receptor; in series [3]; in series [4]) was “Not Active” throughout. Moreover, the IC50 result against Cytochrome P450 2C9 is on record as “Not Active”. For the same compound, the Ki entry at Cytochrome P450 2C9 is reported as “Not Active”.

As for `C[C@@]12C(=O)OC(=O)[C@]1(C)[C@H]1CC[C@@H]2O1` [CANTHARIDIN], the IC50 result (in series [1]; in series [2] (cho-k1); at Thromboxane-A synthase; on Histamine H2 receptor; in series [3]; in series [4]) was “Not Active” throughout. In addition, the IC50 entry at Cytochrome P450 2C9 is “Not Active”. The Ki result at Cytochrome P450 2C9 is “Not Active”.

Regarding `ClC(Cl)Cl` [CHLOROFORM], the IC50 entry (in series [1]; in series [2] (cho-k1); on Thromboxane-A synthase; at Histamine H2 receptor; in series [3]; in series [4]) was “Not Active” each time. Moreover, at Cytochrome P450 2C9, the half-maximal inhibitory concentration (IC50) entry is “Not Active”. In addition, the inhibitory constant (Ki) entry at Cytochrome P450 2C9 is listed as “Not Active”.

Regarding `C=C1CC[C@H](O)C/C1=C/C=C1\CCC[C@]2(C)[C@@H]([C@H](C)CCCC(C)C)CC[C@@H]12` [CHOLECALCIFEROL], the IC50 entry (in series [1]; in series [2] (cho-k1); at Thromboxane-A synthase; against Histamine H2 receptor; in series [3]; in series [4]) was “Not Active” each time. Besides, the IC50 entry at Cytochrome P450 2C9 is reported as “Not Active”. The inhibition constant (Ki) entry at Cytochrome P450 2C9 is reported as “Not Active”.

For the compound `C[N+](C)(C)CCO.[Cl-]` [CHOLINE CHLORIDE], the concentration for half-maximal inhibition (IC50) result (in series [1]; in series [2] (cho-k1); against Thromboxane-A synthase; at Histamine H2 receptor; in series [3]; in series [4]) was “Not Active” throughout. In addition, the IC50 entry against Cytochrome P450 2C9 is “Not Active”. Further, the Ki entry on Cytochrome P450 2C9 was “Not Active”.

Regarding `CC(=O)OCC(=O)[C@@]1(O)CC[C@H]2[C@@H]3CCC4=CC(=O)CC[C@]4(C)[C@H]3C(=O)C[C@@]21C` [CORTISONE ACETATE], the IC50 entry (in series [1]; in series [2] (cho-k1); against Thromboxane-A synthase; at Histamine H2 receptor; in series [3]; in series [4]) was “Not Active” in each case. Besides, the IC50 entry on Cytochrome P450 2C9 is on record as “Not Active”. Also, on Cytochrome P450 2C9, the Ki entry is “Not Active”.

With `O=c1ccc2ccccc2o1` [COUMARIN], the IC50 result (in series [1]; at Thromboxane-A synthase; at Histamine H2 receptor; in series [3]; in series [4]; at Cytochrome P450 2C9) was “Not Active” in each case. The Ki entry (in series [2] (cho-k1); on Cytochrome P450 2C9) was “Not Active” in each case.
